Experiments:
Hepatocyte [1] = test: Antihepatotoxic activity against CCl4-induced toxicity in rat hepatocytes assessed as effect on GPT activity at 5 uM by Reitman-Fankel method relative to control; assay type: functional
Hepatocyte [2] = test: Antihepatotoxic activity against CCl4-induced toxicity in rat hepatocytes assessed as effect on SDH activity at 5 uM by Geralch method relative to control; assay type: functional

Structure (SMILES) | Activity (Hepatocyte [1]) | Activity (Hepatocyte [2])
CCCCCCCCC/C=C\CC/C=C/[C@@H](O)[C@H](CO[C@@H]1O[C@H](CO)[C@@H](O)[C@H](O)[C@H]1O)NC(=O)[C@H](O)CCCCCCCCCCCCCCCCCC | 53.8% | 51.2%
CCCCCCCCC/C=C\CC/C=C/[C@@H](O)[C@H](CO[C@@H]1O[C@H](CO)[C@@H](O)[C@H](O)[C@H]1O)NC(=O)C(O)CCCCCCCCCCCCCCCC (some centres not stated) | 35.1% | 36.9%
CCCCCCCCC/C=C\CC/C=C/[C@@H](O)[C@H](CO[C@@H]1O[C@H](CO)[C@@H](O)[C@H](O)[C@H]1O)NC(=O)C(O)CCCCCCCCCCCCCC (some centres not stated) | 54.4% | 71.2%
CCCCCCCCC/C=C/CC/C=C/[C@@H](O)[C@H](CO[C@@H]1O[C@H](CO)[C@@H](O)[C@H](O)[C@H]1O)NC(=O)C(O)CCCCCCCCCCCCCCCCCC (some centres not stated) | 22.5% | 7.2%
COc1cc(C2Oc3cc([C@H]4Oc5cc(O)cc(O)c5C(=O)[C@@H]4O)ccc3OC2CO)ccc1O (some centres not stated) [SILIBININ] | 48.7% | 42.3%
CCCCCCCCC/C=C/CC/C=C/[C@@H](O)[C@H](CO[C@@H]1O[C@H](CO)[C@@H](O)[C@H](O)[C@H]1O)NC(=O)C(O)CCCCCCCCCCCCCCCC (some centres not stated) | 51.6% | 46.1%

From ChEMBL document CHEMBL1158242, “New bioactive cerebrosides from Arisaema amurense” (1996)
